Laboratory results reported in ChEMBL document CHEMBL1201862, “PubChem BioAssay data set” (2004).
Activity calls are given as the source filed them.

Legend:
Type in all cases: functional
[1] = target: Vascular endothelial growth factor receptor 1 (Homo sapiens, UniProt P17948);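 note: measured within a kinome-wide profiling panel, FLT1 as the panel member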
[2] = target: Insulin-like growth factor 1 receptor (Homo sapiens, UniProt P08069); experiment: Navigating the Kinome. Panel member name: IGF1R
[3] = target: Calcium/calmodulin-dependent protein kinase type II subunit gamma (Homo sapiens, UniProt Q13555)
[4] = target: Receptor tyrosine-protein kinase erbB-2 (Homo sapiens, UniProt P04626); experiment: Navigating the Kinome. Panel member name: ERBB2
[5] = target: MAP kinase-activated protein kinase 2 (Homo sapiens, UniProt P49137);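 note: measured as one member of a kinome-wide kinase panel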
[6] = target: Tyrosine-protein kinase Fyn (Homo sapiens, UniProt P06241)
[7] = target: Mitogen-activated protein kinase 13 (Homo sapiens, UniProt O15264)
[8] = target: Serine/threonine-protein kinase pim-1 (Homo sapiens, UniProt P11309)
[9] = target: Protein-tyrosine kinase 6 (Homo sapiens, UniProt Q13882)
[10] = target: Lymphokine-activated killer T-cell-originated protein kinase (Homo sapiens, UniProt Q96KB5);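 note: value comes from a kinase panel screen in which TOPK was one of the panel members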
[11] = target: Calcium/calmodulin-dependent protein kinase type II subunit delta (Homo sapiens, UniProt Q13557)
[12] = target: cAMP-dependent protein kinase catalytic subunit PRKX (Homo sapiens, UniProt P51817)
[13] = target: Serine/threonine-protein kinase 3 (Homo sapiens, UniProt Q13188);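 note: measured as one member of a kinome-wide kinase panel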
[14] = target: Death-associated protein kinase 3 (Homo sapiens, UniProt O43293);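 note: measured as one member of a kinome-wide profiling panel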
[15] = target: Proto-oncogene tyrosine-protein kinase ROS (Homo sapiens, UniProt P08922);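 note: ROS1 tested as one member of a kinome-wide kinase panel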
[16] = target: Receptor-type tyrosine-protein kinase FLT3 (Homo sapiens, UniProt P36888);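 note: FLT3 was tested as one member of a kinome-wide kinase panel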
[17] = target: Casein kinase I isoform alpha (Homo sapiens, UniProt P48729)
[18] = target: Tyrosine-protein kinase JAK3 (Homo sapiens, UniProt P52333)
[19] = target: MAP kinase-interacting serine/threonine-protein kinase 2 (Homo sapiens, UniProt Q9HBH9)
[20] = target: Mitogen-activated protein kinase kinase kinase kinase 5 (Homo sapiens, UniProt Q9Y4K4);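 note: measured as one member of a kinome-spanning kinase panel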
Insulin receptor = Insulin receptor (Homo sapiens, UniProt P06213);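 note: insulin receptor kinase tested as one member of a kinome-wide kinase panel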
[21] = target: Ribosomal protein S6 kinase alpha-5 (Homo sapiens, UniProt O75582)
[22] = target: High affinity nerve growth factor receptor (Homo sapiens, UniProt P04629);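 note: NTRK1 tested as one member of a kinome-wide profiling panel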
[23] = target: Tyrosine-protein kinase SYK (Homo sapiens, UniProt P43405)
[24] = target: Dual specificity tyrosine-phosphorylation-regulated kinase 3 (Homo sapiens, UniProt O43781);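 note: measured as one member of a broad kinase panel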
Sequence of Dual specificity tyrosine-phosphorylation-regulated kinase 3 (O43781 whole entry): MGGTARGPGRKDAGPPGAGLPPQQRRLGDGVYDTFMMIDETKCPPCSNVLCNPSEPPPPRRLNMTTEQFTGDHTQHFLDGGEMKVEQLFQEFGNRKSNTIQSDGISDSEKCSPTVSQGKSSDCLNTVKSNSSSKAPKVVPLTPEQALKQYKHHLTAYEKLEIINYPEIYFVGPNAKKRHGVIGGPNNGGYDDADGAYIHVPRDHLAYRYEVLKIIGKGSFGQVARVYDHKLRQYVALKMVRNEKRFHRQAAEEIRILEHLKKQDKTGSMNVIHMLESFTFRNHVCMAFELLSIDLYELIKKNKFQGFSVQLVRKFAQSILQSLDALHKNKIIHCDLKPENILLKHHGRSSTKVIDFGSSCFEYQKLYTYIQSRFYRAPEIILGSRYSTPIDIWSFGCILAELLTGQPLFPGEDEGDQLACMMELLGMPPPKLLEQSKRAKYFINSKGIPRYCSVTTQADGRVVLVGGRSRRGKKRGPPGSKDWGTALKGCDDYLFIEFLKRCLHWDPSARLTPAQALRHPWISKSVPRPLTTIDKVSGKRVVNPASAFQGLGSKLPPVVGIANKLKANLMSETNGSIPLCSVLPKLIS

Sequence of Ribosomal protein S6 kinase alpha-5 (O75582 whole entry): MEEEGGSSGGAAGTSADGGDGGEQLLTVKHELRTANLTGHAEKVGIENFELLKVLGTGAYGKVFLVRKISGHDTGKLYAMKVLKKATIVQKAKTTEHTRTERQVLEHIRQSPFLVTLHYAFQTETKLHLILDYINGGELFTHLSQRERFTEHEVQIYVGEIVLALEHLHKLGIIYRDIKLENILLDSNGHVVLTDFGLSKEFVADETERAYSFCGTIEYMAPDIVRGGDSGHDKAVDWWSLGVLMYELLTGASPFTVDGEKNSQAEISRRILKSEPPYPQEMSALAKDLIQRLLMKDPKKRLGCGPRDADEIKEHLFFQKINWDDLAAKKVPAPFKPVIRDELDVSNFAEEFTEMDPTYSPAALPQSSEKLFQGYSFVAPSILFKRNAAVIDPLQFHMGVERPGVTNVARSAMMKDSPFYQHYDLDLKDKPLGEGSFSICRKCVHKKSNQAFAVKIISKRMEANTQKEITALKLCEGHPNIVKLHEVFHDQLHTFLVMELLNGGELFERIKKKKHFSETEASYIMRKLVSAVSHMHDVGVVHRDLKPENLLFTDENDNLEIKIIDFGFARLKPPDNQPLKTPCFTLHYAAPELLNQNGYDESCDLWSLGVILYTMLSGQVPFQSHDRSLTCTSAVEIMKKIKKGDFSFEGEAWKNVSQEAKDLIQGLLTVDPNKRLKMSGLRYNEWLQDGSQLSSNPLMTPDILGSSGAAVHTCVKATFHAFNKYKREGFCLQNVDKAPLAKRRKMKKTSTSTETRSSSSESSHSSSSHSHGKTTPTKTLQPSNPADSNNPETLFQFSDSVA
Sequence of Casein kinase I isoform alpha (P48729 whole entry, canonical isoform): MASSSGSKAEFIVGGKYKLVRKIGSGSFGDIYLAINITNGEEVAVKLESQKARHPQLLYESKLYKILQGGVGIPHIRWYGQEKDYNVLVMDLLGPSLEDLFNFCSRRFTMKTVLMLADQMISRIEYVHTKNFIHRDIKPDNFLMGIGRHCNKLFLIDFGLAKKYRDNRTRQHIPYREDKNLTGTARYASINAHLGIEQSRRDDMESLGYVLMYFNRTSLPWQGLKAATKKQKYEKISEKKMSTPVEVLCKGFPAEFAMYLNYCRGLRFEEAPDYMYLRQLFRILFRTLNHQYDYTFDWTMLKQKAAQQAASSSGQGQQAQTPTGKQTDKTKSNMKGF
Sequence of High affinity nerve growth factor receptor (P04629 whole entry): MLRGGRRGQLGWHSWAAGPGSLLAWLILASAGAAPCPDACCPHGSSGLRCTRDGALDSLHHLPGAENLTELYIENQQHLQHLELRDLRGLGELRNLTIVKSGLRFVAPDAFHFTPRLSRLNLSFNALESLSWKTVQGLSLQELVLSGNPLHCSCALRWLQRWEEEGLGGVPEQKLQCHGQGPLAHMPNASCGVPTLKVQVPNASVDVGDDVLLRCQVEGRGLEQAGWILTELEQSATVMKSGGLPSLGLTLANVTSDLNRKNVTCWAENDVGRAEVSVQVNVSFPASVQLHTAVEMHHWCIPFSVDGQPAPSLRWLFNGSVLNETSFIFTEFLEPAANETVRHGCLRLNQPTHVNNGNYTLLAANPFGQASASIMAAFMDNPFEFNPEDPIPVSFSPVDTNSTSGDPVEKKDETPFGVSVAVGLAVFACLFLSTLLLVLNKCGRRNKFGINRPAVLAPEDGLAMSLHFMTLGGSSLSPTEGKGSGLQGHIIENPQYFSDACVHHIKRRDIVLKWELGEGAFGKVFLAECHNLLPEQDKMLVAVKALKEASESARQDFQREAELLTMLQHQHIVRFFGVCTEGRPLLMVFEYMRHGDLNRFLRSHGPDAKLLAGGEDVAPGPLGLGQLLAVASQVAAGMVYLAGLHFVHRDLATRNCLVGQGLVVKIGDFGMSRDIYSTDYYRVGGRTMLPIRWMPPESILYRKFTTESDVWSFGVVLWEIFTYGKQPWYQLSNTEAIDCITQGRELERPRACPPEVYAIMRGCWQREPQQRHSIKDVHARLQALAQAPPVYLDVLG
Sequence of Receptor tyrosine-protein kinase erbB-2 (P04626 whole entry): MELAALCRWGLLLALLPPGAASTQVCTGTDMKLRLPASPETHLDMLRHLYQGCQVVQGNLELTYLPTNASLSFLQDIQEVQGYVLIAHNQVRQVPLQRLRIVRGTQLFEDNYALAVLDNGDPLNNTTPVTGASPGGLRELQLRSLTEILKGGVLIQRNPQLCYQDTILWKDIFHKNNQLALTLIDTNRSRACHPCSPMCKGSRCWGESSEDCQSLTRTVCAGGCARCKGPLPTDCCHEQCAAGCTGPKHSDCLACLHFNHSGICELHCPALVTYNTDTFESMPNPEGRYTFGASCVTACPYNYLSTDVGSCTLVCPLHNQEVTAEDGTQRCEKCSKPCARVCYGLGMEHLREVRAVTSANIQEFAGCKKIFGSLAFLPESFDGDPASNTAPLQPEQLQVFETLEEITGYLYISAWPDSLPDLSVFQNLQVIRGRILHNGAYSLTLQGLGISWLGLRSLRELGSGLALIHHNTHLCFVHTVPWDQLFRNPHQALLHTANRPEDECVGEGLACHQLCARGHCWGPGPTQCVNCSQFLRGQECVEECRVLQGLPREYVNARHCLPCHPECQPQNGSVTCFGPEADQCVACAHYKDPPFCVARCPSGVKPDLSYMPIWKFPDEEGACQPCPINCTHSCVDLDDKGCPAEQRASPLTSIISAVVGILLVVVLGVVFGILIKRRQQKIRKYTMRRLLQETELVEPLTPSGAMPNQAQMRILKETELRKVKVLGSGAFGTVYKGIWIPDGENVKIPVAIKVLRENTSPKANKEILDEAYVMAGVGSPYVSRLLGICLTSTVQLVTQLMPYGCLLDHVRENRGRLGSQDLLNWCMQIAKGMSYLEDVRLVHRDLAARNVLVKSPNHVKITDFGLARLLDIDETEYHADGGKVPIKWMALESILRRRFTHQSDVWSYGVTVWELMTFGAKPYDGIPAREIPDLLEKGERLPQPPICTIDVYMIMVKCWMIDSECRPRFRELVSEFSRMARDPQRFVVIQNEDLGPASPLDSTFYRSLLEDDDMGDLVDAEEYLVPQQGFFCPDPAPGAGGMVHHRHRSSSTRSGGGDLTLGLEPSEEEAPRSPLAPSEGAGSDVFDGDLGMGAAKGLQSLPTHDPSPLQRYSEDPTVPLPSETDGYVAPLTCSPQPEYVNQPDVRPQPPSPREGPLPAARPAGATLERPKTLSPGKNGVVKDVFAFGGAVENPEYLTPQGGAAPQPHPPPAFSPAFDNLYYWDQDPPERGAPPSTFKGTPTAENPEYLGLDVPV
Sequence of Mitogen-activated protein kinase kinase kinase kinase 5 (Q9Y4K4 whole entry): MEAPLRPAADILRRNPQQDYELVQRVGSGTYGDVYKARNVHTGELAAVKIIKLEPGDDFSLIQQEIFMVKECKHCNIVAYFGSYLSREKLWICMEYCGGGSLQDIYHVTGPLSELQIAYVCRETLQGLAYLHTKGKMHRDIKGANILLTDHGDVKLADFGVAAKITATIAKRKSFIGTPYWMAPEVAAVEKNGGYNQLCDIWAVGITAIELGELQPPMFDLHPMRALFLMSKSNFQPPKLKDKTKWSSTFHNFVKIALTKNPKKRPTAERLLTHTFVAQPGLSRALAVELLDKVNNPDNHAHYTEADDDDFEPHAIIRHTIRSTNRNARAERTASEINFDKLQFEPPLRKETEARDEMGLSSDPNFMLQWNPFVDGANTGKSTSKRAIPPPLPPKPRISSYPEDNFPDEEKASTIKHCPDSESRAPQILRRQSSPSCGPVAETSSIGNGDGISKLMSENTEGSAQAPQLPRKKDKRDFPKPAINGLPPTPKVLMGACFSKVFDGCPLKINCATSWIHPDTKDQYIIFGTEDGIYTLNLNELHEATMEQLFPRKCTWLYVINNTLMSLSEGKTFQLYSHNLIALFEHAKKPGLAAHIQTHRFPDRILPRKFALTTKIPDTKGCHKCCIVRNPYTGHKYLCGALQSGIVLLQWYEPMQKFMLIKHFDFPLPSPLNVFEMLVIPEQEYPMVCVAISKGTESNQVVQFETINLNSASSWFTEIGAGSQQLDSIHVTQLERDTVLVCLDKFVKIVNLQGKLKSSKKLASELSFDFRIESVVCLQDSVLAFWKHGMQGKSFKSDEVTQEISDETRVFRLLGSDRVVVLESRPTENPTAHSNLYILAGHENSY
Sequence of Protein-tyrosine kinase 6 (Q13882 whole entry): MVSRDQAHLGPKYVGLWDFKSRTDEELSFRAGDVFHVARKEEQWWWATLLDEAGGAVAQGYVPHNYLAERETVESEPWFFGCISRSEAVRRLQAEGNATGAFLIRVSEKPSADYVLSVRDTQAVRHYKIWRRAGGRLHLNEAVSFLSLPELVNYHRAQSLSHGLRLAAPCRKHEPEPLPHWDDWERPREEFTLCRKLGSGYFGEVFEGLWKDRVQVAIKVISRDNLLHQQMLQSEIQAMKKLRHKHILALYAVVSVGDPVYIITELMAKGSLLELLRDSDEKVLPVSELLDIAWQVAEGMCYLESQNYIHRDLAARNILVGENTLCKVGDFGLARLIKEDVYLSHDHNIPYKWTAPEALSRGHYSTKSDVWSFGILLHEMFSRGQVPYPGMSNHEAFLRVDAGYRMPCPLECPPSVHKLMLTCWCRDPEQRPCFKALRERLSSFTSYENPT

`NC(=O)Cn1cc(-c2cc(-c3cc4ccccc4s3)c3[nH]ncc3c2)c2nc(N)ncc21` was tested, and the Ki [1] was > 398 nM (inactive), the Ki [2] was > 2 µM (inactive) and the Ki [3] was 6.31 µM (active). For the same compound, the Ki [4] was 1 µM (active), the Ki [5] was 25.1 nM (active) and the Ki [6] was > 794 nM (inactive). The Ki [7] was 794 nM (active), the Ki [8] was 3.16 µM (active) and the Ki [9] was > 2.51 µM (inactive). The Ki [10] was > 10 µM (inactive), the Ki [11] was 3.16 µM (active) and the Ki [12] was 39.8 nM (active). The Ki [13] was 2.51 µM (active), the Ki [14] was 1 µM (active) and the Ki [15] was > 2 µM (inactive). The Ki [16] was 1.26 µM (active), the Ki [17] was > 6.31 µM (inactive) and the Ki [18] was > 1.58 µM (inactive). For the same compound, the Ki [19] was 100 nM (active), the Ki [20] was 631 nM (active) and the Ki (Insulin receptor) was > 5.01 µM (inactive). The Ki [21] was > 2 µM (inactive), the Ki [22] was > 2.51 µM (inactive) and the Ki [23] was 200 nM (active). The Ki [24] was 631 nM (active).
